The results in this text go back to US20100119599A1 (ARCHER PHARMACEUTICALS, INC., priority 2006, published 2010).

Molecules are shown by their SMILES. Structures can show the parent of a compound that is named as a salt. Where two headings read alike, the source gives them in different places.

One experiment relates to Aβ1-42. In words: Measurement of Aβ1-42 in culture medium of 7W WT APP751 CHO cells by ELISA.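 For Aβ1-42 (% of control): 5 µM test compound but RI-coded compounds at 10 µM for 24 hours.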 Type of experiment: cell-based, Chinese hamster. Particulars: for Aβ1-42 (% of control): CHO cells that overexpress APP751, zero = below the detection limit of the assay; for activity at 5 µM: Cricetulus griseus, 5 μM test compound, CHO cells stably transfected with human APP751, culture medium, ELISA, control DMSO. For orientation: In an ELISA, binding on a coated surface is turned into a signal by an enzyme label.

The next experiment has as its system Aβ1-40. In words: Measurement of Aβ1-40 in culture medium of 7W WT APP751 CHO cells by ELISA.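 For all read-outs here: 5 µM test compound but RI-coded compounds at 10 µM for 24 hours.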 Type of experiment: cell-based, Chinese hamster. The settings on record: for Aβ1-40 (% of control): CHO cells that overexpress APP751, zero = below the detection limit of the assay; for activity at 5 µM: Cricetulus griseus, 5 μM test compound, CHO cells stably transfected with human APP751, culture medium, ELISA, control DMSO.

Where [1] appears, read: Table 1, 0 = no detectable amount, read-out: Aβ1-42 (% of control).
The mark [2] stands for this setting: Table 1, 0 = no detectable amount.

With `N#CC1=C(N)NC(S)=C(C#N)C1c1cccc(Br)c1` (centres unmarked) [ST014065, 6-amino-4-(3-bromophenyl)-2-sulfanyl-1,4-dihydropyridine-3,5-dicarbonitrile], the “Aβ1-42 (% of control)” value in the experiment with Aβ1-42 is given as 30.01 % of control. The “Aβ1-40 (% of control)” value in the experiment on Aβ1-40 is reported as 18.6 % of control.
As for `CC1(C)CC(=O)C2=C(C1)N(Cc1ccccc1)C(N)=C(C#N)C21CCOCC1` [ST014138, 2-amino-7,7-dimethyl-5-oxo-1-benzylspiro[1,4,6,7,8-pentahydroquinoline-4,4′-2′ H-3′,4,5′,6′-tetrahydropyran]-3-carbonitrile], the values for the activity at 5 µM with Aβ1-42 (setting [1]) and with Aβ1-40 (setting [2]) were 65.3% and 64.1%, respectively.
Turning to `N#CC1=C(N)Nc2c(c(=O)oc3ccccc23)C1c1ccc(Cl)cc1` (centres unmarked) [ST014144, 2-amino-4-(4-chlorophenyl)-5-oxo-1,4-dihydrochromeno[4,3-b]pyridine-3-carbonitrile], in the experiment on Aβ1-42, the “Aβ1-42 (% of control)” value is 66.02 % of control. Further, in the experiment with Aβ1-40, the “Aβ1-40 (% of control)” value is on record as 66.08 % of control.
On the same counts, the results for `N#CC1=C(N)Nc2c(c(=O)oc3ccccc23)C1c1ccc(Br)cc1` (centres unmarked) [ST014147, 2-amino-4-(4-bromophenyl)-5-oxo-1,4-dihydrochromeno[4,3-b]pyridine-3-carbonitrile] are 68.55 % of control and 82.09 % of control.
On the same counts, the results for `N#CC1=C(N)N(Cc2ccccc2)C2=C(COC/C2=C/c2cccnc2)C1c1cccnc1` (centres unmarked) [ST014245, 2-amino-1-benzyl-4-(3-pyridyl)-8-(3-pyridylmethylene)-1,4,7-trihydro-5H-pyrano[4,3-b]pyridine-3-carbonitrile] are 53.59 % of control and 75.44 % of control.
In the case of `N#Cc1c(S)[nH]c(C(F)(F)F)cc1=O` [ST014350, 4-oxo-2-sulfanyl-6-(trifluoromethyl)hydropyridine-3-carbonitrile, 4-methylmorpholine salt], the activity at 5 µM in the experiment with Aβ1-42 (Table 3, read-out: Aβ-42 (% of control)) is 46.1%; in the experiment with Aβ1-40 (Table 3), 81.8%.
As for `CCN(CC)c1ccc(C2C(C(=O)OC(C)C)=C(C)NC3=C2C(=O)CC(c2ccccc2)C3)cc1` (centres unmarked) [ST014875, methylethyl 4-[4-(diethylamino)phenyl]-2-methyl-5-oxo-7-phenyl-1,4,6,7,8-pentahydroquinoline-3-carboxylate], the activity at 5 µM with Aβ1-42 (setting [1]) amounted to 95.7%; in the experiment with Aβ1-40 (setting [2]), 54.2%.
For `CC1=C(C(=O)OCc2ccccc2)C(c2ccccc2C(F)(F)F)C2=C(CC(C)(C)CC2=O)N1` (centres unmarked) [ST014881, phenylmethyl 2,7,7-trimethyl-5-oxo-4-[2-(trifluoromethyl)phenyl]-1,4,6,7,8-pentahydroquinoline-3-carboxylate], in that order: 49.9% and 0%.
On the same counts, the results for `CC1=C(C(=O)OC2CCCCC2)C(c2ccccc2C(F)(F)F)C2=C(CCCC2=O)N1` (centres unmarked) [ST014882, cyclohexyl 2-methyl-5-oxo-4-[2-(trifluoromethyl)phenyl]-1,4,6,7,8-pentahydroquinoline-3-carboxylate] are 91.8% and 39.5%.
For `CC1=C(C(=O)OCCc2ccccc2)C(c2ccc(Cl)cc2Cl)C2=C(CCCC2=O)N1` (centres unmarked) [ST014884, 2-phenylethyl 4-(2,4-dichlorophenyl)-2-methyl-5-oxo-1,4,6,7,8-pentahydroquinoline-3-carboxylate], in that order: 52.8% and 62%.
Take `CC1=C(C(=O)OCCc2ccccc2)C(c2cc3c(cc2Br)OCO3)C2=C(CC(C)(C)CC2=O)N1` (centres unmarked) [ST014885, 2-phenylethyl 4-(6-bromo(2H-benzo[d]1,3-dioxolen-5-yl))-2,7,7-trimethyl-5-oxo-1,4,6,7,8-pentahydroquinoline-3-carboxylate]: the activity at 5 µM with Aβ1-42 (setting [1]) was found to be 87.5%; in the experiment on Aβ1-40 (setting [2]), 39.5%.
For `CCc1ccc(C2C(C(=O)OCCOc3ccccc3)=C(C)NC3=C2C(=O)CC(C)(C)C3)cc1` (centres unmarked) [ST014886, 2-phenoxyethyl 4-(4-ethylphenyl)-2,7,7-trimethyl-5-oxo-1,4,6,7,8-pentahydroquinoline-3-carboxylate], the figures for the activity at 5 µM in the experiment with Aβ1-42 (setting [1]) and in the experiment on Aβ1-40 (setting [2]) were 65.1% and 21.6%, respectively.
With `CC1=C(C(=O)OCCOc2ccccc2)C(c2ccc(Br)cc2)C2=C(CCCC2=O)N1` (centres unmarked) [ST014890, 2-phenoxyethyl 4-(4-bromophenyl)-2-methyl-5-oxo-1,4,6,7,8-pentahydroquinoline-3-carboxylate], the activity at 5 µM in the experiment on Aβ1-42 (setting [1]) worked out at 67.5%; with Aβ1-40 (setting [2]) it was 13.2%.
On the same counts, the results for `CC1=C(C(=O)OCCOc2ccccc2)C(c2ccc(F)cc2)C2=C(CCCC2=O)N1` (centres unmarked) [ST014891, 2-phenoxyethyl 4-(4-fluorophenyl)-2-methyl-5-oxo-1,4,6,7,8-pentahydroquinoline-3-carboxylate] are 39.3% and 51.8%.
For `CC1=C(C(=O)OCCOc2ccccc2)C(c2ccc(OCc3ccccc3)cc2)C2=C(CCCC2=O)N1` (centres unmarked) [ST014899, 2-phenoxyethyl 2-methyl-5-oxo-4-[4-(phenylmethoxy)phenyl]-1,4,6,7,8-pentahydroquinoline-3-carboxylate], in that order: 65.5% and 55.6%.
On the same counts, the results for `CCCCOc1ccccc1C1C(C(=O)OCCc2ccccc2)=C(C)NC2=C1C(=O)CC(C)(C)C2` (centres unmarked) [ST014907, 2-phenylethyl 4-(2-butoxyphenyl)-2,7,7-trimethyl-5-oxo-1,4,6,7,8-pentahydroquinoline-3-carboxylate] are 83.5% and 34.6%.
For the compound `CC1=C(C(=O)OCCOc2ccccc2)C(c2ccccc2OC(C)C)C2=C(CCCC2=O)N1` (centres unmarked) [ST014919, 2-phenoxyethyl 2-methyl-4-[2-(methylethoxy)phenyl]-5-oxo-1,4,6,7,8-pentahydroquinoline-3-carboxylate], the figures for the activity at 5 µM with Aβ1-42 (setting [1]) and in the experiment on Aβ1-40 (setting [2]) were 85.1% and 63.4%, respectively.
For `CC1=C(C(=O)OCCc2ccccc2)C(c2ccc([N+](=O)[O-])cc2)C2=C(CC(C)(C)CC2=O)N1` (centres unmarked) [ST014923, 2-phenylethyl 2,7,7-trimethyl-4-(4-nitrophenyl)-5-oxo-1,4,6,7,8-pentahydroquinoline-3-carboxylate], the activity at 5 µM in the experiment with Aβ1-42 (setting [1]) came out at 28.4%; in the experiment on Aβ1-40 (setting [2]), 0%.
On the same counts, the results for `CCCOc1ccccc1C1C(C(=O)OCc2ccccc2)=C(C)NC2=C1C(=O)CCC2` (centres unmarked) [ST014957, phenylmethyl 2-methyl-5-oxo-4-(2-propoxyphenyl)-1,4,6,7,8-pentahydroquinoline-3-carboxylate] are 62.8% and 0%.
For `CCCOC(=O)C1=C(C)NC2=C(C(=O)CCC2)C1c1cccc(O)c1` (centres unmarked) [ST014959, propyl 4-(3-hydroxyphenyl)-2-methyl-5-oxo-1,4,6,7,8-pentahydroquinoline-3-carboxylate], in that order: 70.2% and 64%.
For the compound `C=CCOC(=O)C1=C(C)NC2=C(C(=O)CCC2)C1c1ccc(OC)c(OC)c1OC` (centres unmarked) [ST014969, prop-2-enyl 2-methyl-5-oxo-4-(2,3,4-trimethoxyphenyl)-1,4,6,7,8-pentahydroquinoline-3-carboxylate], the activity at 5 µM in the experiment on Aβ1-42 (setting [1]) came to 83.3%; in the experiment on Aβ1-40 (setting [2]) it was 39.7%.
Consider `CCc1ccc(C2C(C(=O)OCc3ccccc3)=C(C)NC3=C2C(=O)CCC3)cc1` (centres unmarked) [ST015031, phenylmethyl 4-(4-ethylphenyl)-2-methyl-5-oxo-1,4,6,7,8-pentahydroquinoline-3-carboxylate], for which the activity at 5 µM in the experiment with Aβ1-42 (setting [1]) came out at 71.3%; in the experiment with Aβ1-40 (setting [2]), 33.1%.
`CCOc1cc(C2C(C(=O)OC(C)C)=C(C)NC3=C2C(=O)CCC3)ccc1O` (centres unmarked) [ST015043, methylethyl 4-(3-ethoxy-4-hydroxyphenyl)-2-methyl-5-oxo-1,4,6,7,8-pentahydroquinoline-3-carboxylate]: the activity at 5 µM in the experiment with Aβ1-42 (setting [1]) amounted to 68.8%; with Aβ1-40 (setting [2]), 95.9%.
For `CCCOc1ccccc1C1C(C(=O)OCCc2ccccc2)=C(C)NC2=C1C(=O)CC(C)(C)C2` (centres unmarked) [ST015048, 2-phenylethyl 2,7,7-trimethyl-5-oxo-4-(2-propoxyphenyl)-1,4,6,7,8-pentahydroquinoline-3-carboxylate], in that order: 88.7% and 37.9%.
As for `CC1=C(C(=O)OCCc2ccccc2)C(c2ccccc2OC(C)C)C2=C(CC(C)(C)CC2=O)N1` (centres unmarked) [ST015049, 2-phenylethyl 2,7,7-trimethyl-4-[2-(methylethoxy)phenyl]-5-oxo-1,4,6,7,8-pentahydroquinoline-3-carboxylate], the activity at 5 µM with Aβ1-42 (setting [1]) was found to be 62.4%; in the experiment on Aβ1-40 (setting [2]), 0%.
On the same counts, the results for `CC1=C(C(=O)OCCc2ccccc2)C(c2ccccc2)C2=C(CC(C)(C)CC2=O)N1` (centres unmarked) [ST015054, 2-phenylethyl 2,7,7-trimethyl-5-oxo-4-phenyl-1,4,6,7,8-pentahydroquinoline-3-carboxylate] are 44.2% and 29.9%.
Consider `CC1=C(C(=O)OCCOc2ccccc2)C(c2cccc(Oc3ccccc3)c2)C2=C(CC(C)(C)CC2=O)N1` (centres unmarked) [ST015055, 2-phenoxyethyl 2,7,7-trimethyl-5-oxo-4-(3-phenoxyphenyl)-1,4,6,7,8-pentahydroquinoline-3-carboxylate], for which the activity at 5 µM was 78.2% with Aβ1-42 (setting [1]) and 13.6% with Aβ1-40 (setting [2]).
On the same counts, the results for `CCCOc1ccccc1C1C(C(=O)OCCc2ccccc2)=C(C)NC2=C1C(=O)CCC2` (centres unmarked) [ST015060, 2-phenylethyl 2-methyl-5-oxo-4-(2-propoxyphenyl)-1,4,6,7,8-pentahydroquinoline-3-carboxylate] are 0% and 0%.
